Data as given in ChEMBL document CHEMBL1151785, “Oleanolic acid and its derivatives: new inhibitor of protein tyrosine phosphatase 1B with cellular activities” (Bioorg Med Chem, 2008).

Key:
[1] = molecular target: T1, Tyrosine-protein phosphatase non-receptor type 2 (Homo sapiens, UniProt P17706); experiment: Inhibition of TCPTP by pNPP assay
T1 sequence (P17706 whole entry): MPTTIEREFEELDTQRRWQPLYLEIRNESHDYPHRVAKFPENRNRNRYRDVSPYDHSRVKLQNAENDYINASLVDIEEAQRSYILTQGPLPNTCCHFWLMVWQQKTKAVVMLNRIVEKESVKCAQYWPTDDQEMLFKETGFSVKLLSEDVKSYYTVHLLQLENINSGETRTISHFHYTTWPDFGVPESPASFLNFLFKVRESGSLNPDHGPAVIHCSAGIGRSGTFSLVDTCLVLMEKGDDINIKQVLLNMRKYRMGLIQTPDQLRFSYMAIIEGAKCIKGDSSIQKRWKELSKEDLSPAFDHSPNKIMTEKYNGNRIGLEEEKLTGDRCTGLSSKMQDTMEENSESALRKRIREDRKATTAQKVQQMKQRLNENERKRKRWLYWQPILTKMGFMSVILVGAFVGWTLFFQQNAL

[2] = molecular target: T2, Tyrosine-protein phosphatase non-receptor type 1 (Homo sapiens, UniProt P18031); experiment: Inhibition of PTP1B by pNPP assay
T2 sequence (P18031 whole entry): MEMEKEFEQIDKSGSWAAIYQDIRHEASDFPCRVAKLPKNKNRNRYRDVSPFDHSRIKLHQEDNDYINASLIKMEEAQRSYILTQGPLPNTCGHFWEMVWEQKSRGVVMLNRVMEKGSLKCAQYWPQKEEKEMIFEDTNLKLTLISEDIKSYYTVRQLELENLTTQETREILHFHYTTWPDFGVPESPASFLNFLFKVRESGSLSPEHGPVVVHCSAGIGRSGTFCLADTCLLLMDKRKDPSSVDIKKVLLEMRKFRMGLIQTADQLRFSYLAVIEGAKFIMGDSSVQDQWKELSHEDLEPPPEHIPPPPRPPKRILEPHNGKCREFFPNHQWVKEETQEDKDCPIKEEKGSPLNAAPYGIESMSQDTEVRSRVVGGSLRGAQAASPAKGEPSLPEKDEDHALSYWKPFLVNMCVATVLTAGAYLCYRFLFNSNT

IC50 [1]	IC50 [2]	Structure (SMILES)
530 nM	590 nM	CC1(C)CC[C@]2(CCCCCCCCCCCCC(=O)O)CC[C@]3(C)C(=CC[C@@H]4[C@@]5(C)CC[C@H](O)C(C)(C)[C@@H]5CC[C@]43C)[C@@H]2C1
750 nM	550 nM	CSCC[C@H](NC(=O)CCCC[C@]12CCC(C)(C)C[C@H]1C1=CC[C@@H]3[C@@]4(C)CC[C@H](O)C(C)(C)[C@@H]4CC[C@@]3(C)[C@]1(C)CC2)C(=O)O
500 nM	550 nM	Cc1ccccc1CC(NC(=O)CCCC[C@]12CCC(C)(C)C[C@H]1C1=CC[C@@H]3[C@@]4(C)CC[C@H](O)C(C)(C)[C@@H]4CC[C@@]3(C)[C@]1(C)CC2)C(=O)O (stereo partly specified)
5000 nM	4580 nM	CC1(C)CC[C@]2(C(=O)O)CC[C@]3(C)C(=CC[C@@H]4[C@@]5(C)CC[C@H](OC(=O)c6ccccc6C(=O)O)C(C)(C)[C@@H]5CC[C@]43C)[C@@H]2C1
700 nM	820 nM	COc1ccc(CC(NC(=O)CCCC[C@]23CCC(C)(C)C[C@H]2C2=CC[C@@H]4[C@@]5(C)CC[C@H](O)C(C)(C)[C@@H]5CC[C@@]4(C)[C@]2(C)CC3)C(=O)O)cc1OC (stereo partly specified)
> 20000 nM	> 20000 nM	C[C@H]1[C@H](C)CC[C@]2(C)CC[C@]3(C)C(=CC[C@@H]4[C@@]5(C)CC[C@@H](O)[C@](C)(C(=O)O)[C@@H]5CC[C@]43C)[C@H]12 [BOSWELLIC ACID]
4550 nM	2860 nM	CC1(C)CC[C@]2(C(=O)O)CC[C@]3(C)C(=CC[C@@H]4[C@@]5(C)CC[C@H](OC(=O)C(=O)O)C(C)(C)[C@@H]5CC[C@]43C)[C@@H]2C1
360 nM	450 nM	CC1(C)CC[C@]2(CCCCC(=O)NC(Cc3ccc([N+](=O)[O-])cc3)C(=O)O)CC[C@]3(C)C(=CC[C@@H]4[C@@]5(C)CC[C@H](O)C(C)(C)[C@@H]5CC[C@]43C)[C@@H]2C1 (stereo partly specified)
750 nM	660 nM	COc1cccc(CC(NC(=O)CCCC[C@]23CCC(C)(C)C[C@H]2C2=CC[C@@H]4[C@@]5(C)CC[C@H](O)C(C)(C)[C@@H]5CC[C@@]4(C)[C@]2(C)CC3)C(=O)O)c1OC (stereo partly specified)
450 nM	530 nM	COc1ccccc1CC(NC(=O)CCCC[C@]12CCC(C)(C)C[C@H]1C1=CC[C@@H]3[C@@]4(C)CC[C@H](O)C(C)(C)[C@@H]4CC[C@@]3(C)[C@]1(C)CC2)C(=O)O (stereo partly specified)
–	8100 nM	CC1(C)CC[C@]2(C(=O)NCc3ccccc3)CC[C@]3(C)C(=CC[C@@H]4[C@@]5(C)CC[C@H](O)C(C)(C)[C@@H]5CC[C@]43C)[C@@H]2C1
> 20000 nM	> 20000 nM	CC1(C)CC[C@]2(C)CC[C@]3(C)[C@H](CC[C@@H]4[C@@]5(C)CC[C@H](O)C(C)(C)[C@@H]5CC[C@]43C)[C@@H]2C1
3660 nM	2890 nM	CCOC(=O)C(=O)O[C@H]1CC[C@]2(C)[C@H]3CC=C4[C@@H]5CC(C)(C)CC[C@]5(C(=O)O)CC[C@@]4(C)[C@]3(C)CC[C@H]2C1(C)C
5350 nM	5730 nM	O=C(O)C(=O)c1ccc(OCc2ccc(COc3ccc(C(=O)C(=O)O)cc3)cc2)cc1
480 nM	610 nM	CC1(C)CC[C@]2(CCCCC(=O)NC(Cc3ccc(Cl)cc3)C(=O)O)CC[C@]3(C)C(=CC[C@@H]4[C@@]5(C)CC[C@H](O)C(C)(C)[C@@H]5CC[C@]43C)[C@@H]2C1 (stereo partly specified)
> 20000 nM	12400 nM	C[C@H]1[C@H](C)CC[C@]2(C(=O)O)CC[C@]3(C)C(=CC[C@@H]4[C@@]5(C)C[C@@H](O)[C@H](O)[C@@](C)(CO)[C@@H]5[C@H](O)C[C@]43C)[C@H]12 [MADECASSIC ACID]
520 nM	510 nM	CC1(C)CC[C@]2(CCCCC(=O)NC(Cc3cccc(Cl)c3)C(=O)O)CC[C@]3(C)C(=CC[C@@H]4[C@@]5(C)CC[C@H](O)C(C)(C)[C@@H]5CC[C@]43C)[C@@H]2C1 (stereo partly specified)
–	3190 nM	CC1(C)CC[C@]2(C(=O)Nc3ccc(C(=O)O)cc3)CC[C@]3(C)C(=CC[C@@H]4[C@@]5(C)CC[C@H](O)C(C)(C)[C@@H]5CC[C@]43C)[C@@H]2C1
2750 nM	2670 nM	CC1(C)CC[C@]2(C(=O)O)CC[C@]3(C)C(=CC[C@@H]4[C@@]5(C)CC[C@H](OCc6ccccc6)C(C)(C)[C@@H]5CC[C@]43C)[C@@H]2C1
–	9200 nM	CNC(=O)[C@]12CCC(C)(C)C[C@H]1C1=CC[C@@H]3[C@@]4(C)CC[C@H](O)C(C)(C)[C@@H]4CC[C@@]3(C)[C@]1(C)CC2

IC50 [1]	IC50 [2]	Structure (SMILES)
> 20000 nM	> 20000 nM	C[C@H]1[C@H](C)CC[C@]2(C(=O)O)CC[C@]3(C)C(=CC[C@@H]4[C@@]5(C)C[C@@H](O)[C@H](O)[C@@](C)(CO)[C@@H]5CC[C@]43C)[C@H]12 [ASIATIC ACID]
650 nM	570 nM	CC1(C)CC[C@]2(CCCCC(=O)NC(Cc3ccc(F)cc3)C(=O)O)CC[C@]3(C)C(=CC[C@@H]4[C@@]5(C)CC[C@H](O)C(C)(C)[C@@H]5CC[C@]43C)[C@@H]2C1 (stereo partly specified)
850 nM	880 nM	CC1(C)CC[C@]2(CCCCCCC(=O)O)CC[C@]3(C)C(=CC[C@@H]4[C@@]5(C)CC[C@H](O)C(C)(C)[C@@H]5CC[C@]43C)[C@@H]2C1
590 nM	590 nM	CC1(C)CC[C@]2(CCCCC(=O)N[C@@H](Cc3c[nH]c4ccccc34)C(=O)O)CC[C@]3(C)C(=CC[C@@H]4[C@@]5(C)CC[C@H](O)C(C)(C)[C@@H]5CC[C@]43C)[C@@H]2C1
5630 nM	5320 nM	CC1(C)CC[C@]2(C(=O)O)CC[C@]3(C)C(=CC[C@@H]4[C@@]5(C)CCC(=O)C(C)(C)[C@@H]5CC[C@]43C)[C@@H]2C1 [OLEANONIC ACID]
> 20000 nM	–	CC1(C)[C@@H](O)CC[C@]2(C)[C@H]3C(=O)C=C4[C@@H]5C[C@@](C)(C(=O)O)CC[C@]5(C)CC[C@@]4(C)[C@]3(C)CC[C@@H]12 [ENOXOLONE]
490 nM	620 nM	CC1(C)CC[C@]2(C(=O)O)CC[C@]3(C)C(=CC[C@@H]4[C@@]5(C)CC[C@H](OCc6cccc(C(=O)O)c6)C(C)(C)[C@@H]5CC[C@]43C)[C@@H]2C1
4310 nM	4620 nM	CC1(C)CC[C@]2(CCCCC(=O)N[C@@H](Cc3cnc[nH]3)C(=O)O)CC[C@]3(C)C(=CC[C@@H]4[C@@]5(C)CC[C@H](O)C(C)(C)[C@@H]5CC[C@]43C)[C@@H]2C1
2530 nM	2850 nM	C=C1CC[C@]2(C)[C@H]3CC=C4[C@@H]5CC(C)(C)CC[C@]5(C(=O)O)CC[C@@]4(C)[C@]3(C)CC[C@H]2C1(C)C
–	8610 nM	CC1(C)CC[C@]2(C(=O)OCc3ccccc3)CC[C@]3(C)C(=CC[C@@H]4[C@@]5(C)CC[C@H](O)C(C)(C)[C@@H]5CC[C@]43C)[C@@H]2C1
–	16400 nM	CC1(C)CC[C@]2(C(=O)N[C@@H](CCC(=O)O)C(=O)O)CC[C@]3(C)C(=CC[C@@H]4[C@@]5(C)CC[C@H](O)C(C)(C)[C@@H]5CC[C@]43C)[C@@H]2C1
3000 nM	2610 nM	CC1(C)CC[C@]2(C(=O)O)CC[C@]3(C)C(=CC[C@@H]4[C@@]5(C)CCCC(C)(C)[C@@H]5CC[C@]43C)[C@@H]2C1
9450 nM	8040 nM	C[C@H]1[C@H](C)CC[C@]2(C)CC[C@]3(C)C(=CC(=O)[C@@H]4[C@@]5(C)CC[C@@H](O)[C@](C)(C(=O)O)[C@@H]5CC[C@]43C)[C@H]12 [11-KETO BOSWELLIC ACID]
520 nM	520 nM	COc1cccc(CC(NC(=O)CCCC[C@]23CCC(C)(C)C[C@H]2C2=CC[C@@H]4[C@@]5(C)CC[C@H](O)C(C)(C)[C@@H]5CC[C@@]4(C)[C@]2(C)CC3)C(=O)O)c1 (stereo partly specified)
550 nM	560 nM	CC1(C)CC[C@]2(CCCCC(=O)NC(Cc3ccccc3Cl)C(=O)O)CC[C@]3(C)C(=CC[C@@H]4[C@@]5(C)CC[C@H](O)C(C)(C)[C@@H]5CC[C@]43C)[C@@H]2C1 (stereo partly specified)
660 nM	650 nM	Cc1ccc(CC(NC(=O)CCCC[C@]23CCC(C)(C)C[C@H]2C2=CC[C@@H]4[C@@]5(C)CC[C@H](O)C(C)(C)[C@@H]5CC[C@@]4(C)[C@]2(C)CC3)C(=O)O)cc1 (stereo partly specified)
–	15400 nM	CC1(C)CC[C@]2(C(=O)NCC(=O)O)CC[C@]3(C)C(=CC[C@@H]4[C@@]5(C)CC[C@H](O)C(C)(C)[C@@H]5CC[C@]43C)[C@@H]2C1
2220 nM	2720 nM	CC1(C)CC[C@]2(C(=O)O)CC[C@]3(C)C(=CC[C@@H]4[C@@]5(C)CC[C@H](OCc6ccccc6C(=O)O)C(C)(C)[C@@H]5CC[C@]43C)[C@@H]2C1
–	4760 nM	CC1(C)CC[C@]2(C(N)=O)CC[C@]3(C)C(=CC[C@@H]4[C@@]5(C)CC[C@H](O)C(C)(C)[C@@H]5CC[C@]43C)[C@@H]2C1
–	4440 nM	COC(=O)[C@]12CCC(C)(C)C[C@H]1C1=CC[C@@H]3[C@@]4(C)CC[C@H](O)C(C)(C)[C@@H]4CC[C@@]3(C)[C@]1(C)CC2 [METHYL OLEANOLATE]
